Tests used:
[1] = Half life in Sprague-Dawley rat at 5 mg/kg, IG measured up to 24 hrs by LCMS analysis; assay type: ADME, organism-based; settings: in vivo, po
[2] = target: T1, Cytochrome P450 1A2 (Homo sapiens, UniProt P05177); assay: Inhibition of CYP1A2 in human liver microsomes using phenacetin as substrate incubated for 15 to 45 mins in presence of NADPH; assay type: ADME
T1 sequence (P05177 whole entry): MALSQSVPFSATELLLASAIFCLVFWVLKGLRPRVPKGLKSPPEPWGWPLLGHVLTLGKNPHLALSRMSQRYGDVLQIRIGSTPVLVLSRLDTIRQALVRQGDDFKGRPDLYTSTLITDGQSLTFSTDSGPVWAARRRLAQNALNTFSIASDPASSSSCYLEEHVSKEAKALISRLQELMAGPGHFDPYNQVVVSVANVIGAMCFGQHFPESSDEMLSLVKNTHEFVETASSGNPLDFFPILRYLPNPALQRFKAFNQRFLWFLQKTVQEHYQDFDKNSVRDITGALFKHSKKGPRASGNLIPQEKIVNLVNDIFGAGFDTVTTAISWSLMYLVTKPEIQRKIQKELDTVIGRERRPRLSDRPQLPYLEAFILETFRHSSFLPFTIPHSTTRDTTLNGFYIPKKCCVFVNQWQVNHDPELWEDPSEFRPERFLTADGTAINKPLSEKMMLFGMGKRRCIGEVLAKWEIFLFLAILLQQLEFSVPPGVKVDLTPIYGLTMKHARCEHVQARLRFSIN

[3] = target: Cytochrome P450 2C9 (Homo sapiens, UniProt P11712); assay: Inhibition of CYP2C9 in human liver microsomes using tolbutamide as substrate incubated for 15 to 45 mins in presence of NADPH
[4] = target: Cytochrome P450 2C19 (Homo sapiens, UniProt P33261); assay: Inhibition of CYP2C19 in human liver microsomes using S-mephenytoin as substrate incubated for 15 to 45 mins in presence of NADPH; assay type: ADME
[5] = target: Cytochrome P450 2D6 (Homo sapiens, UniProt P10635); assay: Inhibition of CYP2D6 in human liver microsomes using dextromethorphan as substrate incubated for 15 to 45 mins in presence of NADPH; assay type: ADME
[6] = Inhibition of CYP3A4T in human liver microsomes using testosterone as substrate incubated for 15 to 45 mins in presence of NADPH; assay type: ADME
[7] = Inhibition of CYP3A4M in human liver microsomes using midazolam as substrate incubated for 15 to 45 mins in presence of NADPH; assay type: ADME
[8] = Half life in Sprague-Dawley rat at 1 mg/kg, iv measured up to 24 hrs by LCMS analysis; assay type: ADME, organism-based; settings: in vivo
[9] = Tmax in Sprague-Dawley rat at 5 mg/kg, po administered via gavage measured up to 24 hrs by LCMS analysis; assay type: ADME, organism-based; settings: in vivo
[10] = Cmax in Sprague-Dawley rat at 5 mg/kg, po administered via gavage measured up to 24 hrs by LCMS analysis; assay type: ADME, organism-based; design: route oral, dose 5 mg/kg, time <=24; settings: in vivo
[11] = Oral bioavailability in Sprague-Dawley rat at 5 mg/kg administered via gavage measured up to 24 hrs by LCMS analysis; assay type: ADME, organism-based; settings: in vivo
[12] = Metabolic stability in mouse liver microsomes assessed as intrinsic clearance at 1 uM presence of NADPH measured up to 60 mins by LC-MS/MS analysis; assay type: ADME, Microsome; settings: read-out: CLH
[13] = Metabolic stability in rat liver microsomes assessed as intrinsic clearance at 1 uM presence of NADPH measured up to 60 mins by LC-MS/MS analysis; assay type: ADME, Microsome; settings: read-out: CLH
[14] = Metabolic stability in human liver microsomes assessed as intrinsic clearance at 1 uM presence of NADPH measured up to 60 mins by LC-MS/MS analysis; assay type: ADME, Microsome; settings: read-out: CLH
[15] = Metabolic stability in mouse liver microsomes assessed as half life at 1 uM presence of NADPH measured up to 60 mins by LC-MS/MS analysis; assay type: ADME, Microsome
[16] = Acute toxicity in fasted male mouse assessed as death at 2 g/Kg, IG administered as single dose measured every day for 14 days; settings: in vivo, po, 2000 mg/kg, 336 h, time 14 day
[17] = Acute toxicity in fasted male mouse assessed as abnormal behavior at 2 g/Kg, IG administered as single dose measured every day for 14 days; settings: in vivo, po, 2000 mg/kg, 336 h, time 14 day
[18] = Acute toxicity in fasted male mouse assessed as increase in body weight at 2 g/Kg, IG administered as single dose measured every day for 14 days; settings: in vivo, po, 2000 mg/kg, 336 h, time 14 day
[19] = Acute toxicity in fasted male mouse assessed as pathological changes in brain at 2 g/Kg, IG administered as single dose measured after 14 days by HE staining based assay; assay type: tissue-based; settings: in vivo, po, 2000 mg/kg, 336 h, time 14 day
[20] = Acute toxicity in fasted male mouse assessed as pathological changes in heart at 2 g/Kg, IG administered as single dose measured after 14 days by HE staining based assay; assay type: tissue-based; settings: in vivo, po, 2000 mg/kg, 336 h, time 14 day
[21] = Acute toxicity in fasted male mouse assessed as pathological changes in liver at 2 g/Kg, IG administered as single dose measured after 14 days by HE staining based assay; assay type: tissue-based; settings: in vivo, po, 2000 mg/kg, 336 h, time 14 day
[22] = Acute toxicity in fasted male mouse assessed as pathological changes in spleen at 2 g/Kg, IG administered as single dose measured after 14 days by HE staining based assay; assay type: tissue-based; settings: in vivo, po, 2000 mg/kg, 336 h, time 14 day
[23] = Acute toxicity in fasted male mouse assessed as pathological changes in lung at 2 g/Kg, IG administered as single dose measured after 14 days by HE staining based assay; assay type: tissue-based; settings: in vivo, po, 2000 mg/kg, 336 h, time 14 day
[24] = Acute toxicity in fasted male mouse assessed as pathological changes in kidney at 2 g/Kg, IG administered as single dose measured after 14 days by HE staining based assay; assay type: tissue-based; settings: in vivo, po, 2000 mg/kg, 336 h, time 14 day
[25] = Acute toxicity in fasted female mouse assessed as death at 2 g/Kg, IG administered as single dose measured every day for 14 days; settings: in vivo, po, 2000 mg/kg, 336 h, time 14 day
[26] = Acute toxicity in fasted female mouse assessed as abnormal behavior at 2 g/Kg, IG administered as single dose measured every day for 14 days; settings: in vivo, po, 2000 mg/kg, 336 h, time 14 day
[27] = Acute toxicity in fasted female mouse assessed as increase in body weight at 2 g/Kg, IG administered as single dose measured every day for 14 days; settings: in vivo, po, 2000 mg/kg, 336 h, time 14 day
[28] = Acute toxicity in fasted female mouse assessed as pathological changes in brain at 2 g/Kg, IG administered as single dose measured after 14 days by HE staining based assay; assay type: tissue-based; settings: in vivo, po, 2000 mg/kg, 336 h, time 14 day
[29] = Acute toxicity in fasted female mouse assessed as pathological changes in heart at 2 g/Kg, IG administered as single dose measured after 14 days by HE staining based assay; assay type: tissue-based; settings: in vivo, po, 2000 mg/kg, 336 h, time 14 day
[30] = Acute toxicity in fasted female mouse assessed as pathological changes in liver at 2 g/Kg, IG administered as single dose measured after 14 days by HE staining based assay; assay type: tissue-based; settings: in vivo, po, 2000 mg/kg, 336 h, time 14 day
[31] = Acute toxicity in fasted female mouse assessed as pathological changes in spleen at 2 g/Kg, IG administered as single dose measured after 14 days by HE staining based assay; assay type: tissue-based; settings: in vivo, po, 2000 mg/kg, 336 h, time 14 day
[32] = Acute toxicity in fasted female mouse assessed as pathological changes in lung at 2 g/Kg, IG administered as single dose measured after 14 days by HE staining based assay; assay type: tissue-based; settings: in vivo, po, 2000 mg/kg, 336 h, time 14 day
[33] = Acute toxicity in fasted female mouse assessed as pathological changes in kidney at 2 g/Kg, IG administered as single dose measured after 14 days by HE staining based assay; assay type: tissue-based; settings: in vivo, po, 2000 mg/kg, 336 h, time 14 day
[34] = Metabolic stability in human liver microsomes assessed as half life at 1 uM presence of NADPH measured up to 60 mins by LC-MS/MS analysis; assay type: ADME, Microsome
[35] = Metabolic stability in rat liver microsomes assessed as half life at 1 uM presence of NADPH measured up to 60 mins by LC-MS/MS analysis; assay type: ADME, Microsome
[36] = Aqueous solubility of the compound in PBS buffer at pH 2 measured after 24 hrs by HPLC-UV analysis; assay type: physicochemical
[37] = Aqueous solubility of the compound in PBS buffer at pH 7 measured after 24 hrs by HPLC-UV analysis; assay type: physicochemical
[38] = Aqueous solubility of the compound in PBS buffer at pH 7.4 measured after 24 hrs by HPLC-UV analysis; assay type: physicochemical
[39] = AUC (0 to last) in Sprague-Dawley rat at 5 mg/kg, po administered via gavage measured up to 24 hrs by LCMS analysis; assay type: ADME, organism-based; design: route oral, dose 5 mg/kg, time <=24; settings: in vivo
[40] = AUC (0 to last) in Sprague-Dawley rat at 1 mg/kg, iv measured up to 24 hrs by LCMS analysis; assay type: ADME, organism-based; design: route intravenous, dose 1 mg/kg, time <=24; settings: in vivo
[41] = AUCinfinity in Sprague-Dawley rat at 5 mg/kg, po administered via gavage measured up to 24 hrs by LCMS analysis; assay type: ADME, organism-based; design: route oral, dose 5 mg/kg, time <=24; settings: in vivo
[42] = AUCinfinity in Sprague-Dawley rat at 1 mg/kg, iv measured up to 24 hrs by LCMS analysis; assay type: ADME, organism-based; design: route intravenous, dose 1 mg/kg, time <=24; settings: in vivo
[43] = MRTinfinity in Sprague-Dawley rat at 5 mg/kg, po administered via gavage measured up to 24 hrs by LCMS analysis; assay type: ADME, organism-based; settings: in vivo
[44] = MRTinfinity in Sprague-Dawley rat at 1 mg/kg, iv measured up to 24 hrs by LCMS analysis; assay type: ADME, organism-based; settings: in vivo
[45] = Half life in Sprague-Dawley rat at 5 mg/kg, po administered via gavage measured up to 24 hrs by LCMS analysis; assay type: ADME, organism-based; settings: in vivo

Cytochrome P450 2C9, sequence (P11712 whole entry): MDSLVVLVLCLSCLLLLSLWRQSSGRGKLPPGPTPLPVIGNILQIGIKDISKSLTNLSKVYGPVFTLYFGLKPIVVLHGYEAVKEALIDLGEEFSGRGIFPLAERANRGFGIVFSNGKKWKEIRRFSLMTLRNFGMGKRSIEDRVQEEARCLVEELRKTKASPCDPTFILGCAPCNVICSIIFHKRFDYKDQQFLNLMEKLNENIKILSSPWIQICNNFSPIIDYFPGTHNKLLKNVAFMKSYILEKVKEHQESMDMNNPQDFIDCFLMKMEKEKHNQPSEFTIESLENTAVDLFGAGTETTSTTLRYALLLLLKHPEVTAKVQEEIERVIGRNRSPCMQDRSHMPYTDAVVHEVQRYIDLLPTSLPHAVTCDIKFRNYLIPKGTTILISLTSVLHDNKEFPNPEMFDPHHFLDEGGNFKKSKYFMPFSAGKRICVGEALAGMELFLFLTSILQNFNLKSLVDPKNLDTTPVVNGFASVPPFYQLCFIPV
Cytochrome P450 2D6, sequence (P10635 whole entry): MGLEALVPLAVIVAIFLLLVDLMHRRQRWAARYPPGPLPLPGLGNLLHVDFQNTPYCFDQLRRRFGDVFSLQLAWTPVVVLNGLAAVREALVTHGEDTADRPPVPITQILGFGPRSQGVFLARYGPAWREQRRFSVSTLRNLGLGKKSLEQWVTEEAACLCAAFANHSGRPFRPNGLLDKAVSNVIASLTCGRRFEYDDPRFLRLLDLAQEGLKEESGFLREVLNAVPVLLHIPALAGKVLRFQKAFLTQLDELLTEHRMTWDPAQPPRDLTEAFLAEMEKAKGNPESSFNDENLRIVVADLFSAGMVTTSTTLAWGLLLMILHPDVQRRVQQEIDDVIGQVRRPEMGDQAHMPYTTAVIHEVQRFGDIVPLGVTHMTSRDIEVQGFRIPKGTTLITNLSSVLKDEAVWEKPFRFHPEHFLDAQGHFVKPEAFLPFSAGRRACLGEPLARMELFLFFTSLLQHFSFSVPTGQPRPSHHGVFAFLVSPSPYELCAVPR
Cytochrome P450 2C19, sequence (P33261 whole entry): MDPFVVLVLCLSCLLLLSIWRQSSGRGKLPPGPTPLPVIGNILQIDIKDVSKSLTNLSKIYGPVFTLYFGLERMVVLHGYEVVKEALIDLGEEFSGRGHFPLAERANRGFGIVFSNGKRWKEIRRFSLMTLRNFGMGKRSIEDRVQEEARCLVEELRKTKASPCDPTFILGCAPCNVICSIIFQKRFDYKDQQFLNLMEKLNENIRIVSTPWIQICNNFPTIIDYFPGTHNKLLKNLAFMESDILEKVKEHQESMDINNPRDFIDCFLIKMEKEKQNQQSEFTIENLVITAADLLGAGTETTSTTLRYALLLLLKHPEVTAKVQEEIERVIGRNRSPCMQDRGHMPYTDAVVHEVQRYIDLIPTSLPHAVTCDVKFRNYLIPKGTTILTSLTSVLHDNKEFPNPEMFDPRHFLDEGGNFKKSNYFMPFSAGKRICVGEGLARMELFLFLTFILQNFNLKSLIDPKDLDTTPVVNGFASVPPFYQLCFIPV

Compound | IC50 [2] | IC50 [3] | IC50 [4] | IC50 [5] | IC50 [6] | IC50 [7] | half-life [8] | Tmax [9] | Cmax [10] | bioavailability [11] | Activity [16] | Activity [17] | Activity [18] | Activity [19] | Activity [20] | Activity [21] | Activity [22] | Activity [23] | Activity [24] | Activity [25] | further results
N#Cc1ccc(Nc2nccc(Nc3c(F)cc(-c4ccncc4)cc3F)n2)cc1 |  |  |  |  |  |  |  |  |  |  |  |  |  |  |  |  |  |  |  |  | half-life [1]: 50.4 min
Br.Cc1cnc(Nc2ccc(C#N)cc2)nc1Nc1c(F)cc(-c2ccncc2)cc1F | 4.1 µM | 4.5 µM | 2.2 µM | 7.6 µM | 19 µM | 29 µM | 48.6 min | 15 min | 2.14 ng/mL | 0.9% | Non-Toxic | Non-Toxic | Toxic | Non-Toxic | Non-Toxic | Non-Toxic | Non-Toxic | Non-Toxic | Non-Toxic | Non-Toxic | microsomal CLint at 1 µM [12]: 24.9 µL/min/mg; microsomal CLint at 1 µM [13]: 31.8 µL/min/mg; microsomal CLint at 1 µM [14]: 14.6 µL/min/mg; half-life at 1 µM [15]: 56 min; Activity [26]: Non-Toxic; Activity [27]: Toxic; Activity [28]: Non-Toxic; Activity [29]: Non-Toxic; Activity [30]: Non-Toxic; Activity [31]: Non-Toxic; Activity [32]: Non-Toxic; Activity [33]: Non-Toxic; half-life at 1 µM [34]: 95 min; half-life at 1 µM [35]: 44 min
Cc1cc(-c2ccncc2)cc(C)c1Nc1ccnc(Nc2ccc(C#N)cc2)n1.Cl | > 30 µM | 17 µM | 6.8 µM | > 30 µM | 20 µM | 21 µM | 21.6 min | 60 min | 365 ng/mL | 59.4% | Non-Toxic | Non-Toxic | Toxic | Non-Toxic | Non-Toxic | Non-Toxic | Non-Toxic | Non-Toxic | Non-Toxic | Non-Toxic | solubility at 24 h [36]: 584 µg/mL; solubility at 24 h [37]: 9.1 µg/mL; solubility at 24 h [38]: 9 µg/mL; AUC(0-t) at 24 h [39]: 835 ng·h/mL; AUC(0-t) at 24 h [40]: 285 ng·h/mL; AUC(0-inf) [41]: 861 ng·h/mL; AUC(0-inf) [42]: 290 ng·h/mL; MRT inf [43]: 126 min; MRT inf [44]: 28.8 min; half-life [45]: 132 min; Activity [26]: Non-Toxic; Activity [27]: Toxic; Activity [28]: Non-Toxic; Activity [29]: Non-Toxic; Activity [30]: Non-Toxic; Activity [31]: Non-Toxic; Activity [32]: Non-Toxic; Activity [33]: Non-Toxic
